# Measured values as given in patent publication US20030181436A1, “Treatment for AIDS, HIV, and other related diseases and compounds for use therewith” (priority 2001, published 2003).
# Key:
# PBMCs = assay type: cell-based, Human
# Experimental: Peripheral blood […] cells (PBMCs) were obtained from normal hepatitis B and C and HIV-1 negative donors by ficoll hypaque gradient separation. Briefly, anti-coagulated blood was diluted 1:1 with Dulbecco's phosphate buffered saline without Ca^+2 and Mg^+@ (PBS) and layered over 14 mL of Lymphocyte separation media in a 50 ml centrifuge tube. Tubes were then centrifuged for 30 minutes at 600×g. Banded PBLs were gently aspirated from the resulting interface and subsequently washed 2× with PBS by low speed centrifugation. The mononuclear cells were counted, viability determined by Trypan Blue dye exclusion and resuspended in RPMI 1640 medium supplemented with 15% FBS (heat inactivated), 2 mM L-glutamine, 100 U/mL penicillin, 100 μg/mL streptomycin, and 10 μg/mL gentamycin with 2 μg/mL phytohemagluttin (PHA) at 1×10^6 cells/mL. The cells were cultured for 48 to 72 h at 37° C., 5%, C^02. Following incubation, cells were collected by centrifugation, washed and resuspended in RPMI 1640 supplemented with 15% FBS (heat inactivated), 2 mM L-glutamine, 100 U/mL penicillin, 100 μg/mL streptomycin, and 10 μg/mL gentamycin with 40 U/mL, recombinant IL-2 (R & D Systems, Minneapolis, Minn.). IL-2 was included in the culture medium to maintain the cell division initiated by the PHA mitogenic stimulation. The cultures were then maintained until use by ½ culture volume change with fresh IL-2 containing medium every 3 days.
# Human peripheral blood mononuclear cells from a minimum of 2 donors, that were blasted with PHA and IL-2, were counted, viability determined by Trypan Blue dye exclusion and mixed in equal ratios. Pooled donors were used to minimize the variability observed between individual donors which results from quantitative and qualitative differences in HIV infection and overall response to the PHA and IL-2 of primary lymphocyte populations. […] The assay was incubated for 6 days in a humidified atmosphere at 37° C., 5% CO2, the plates analyzed for cell viability by MTS dye reduction or incorporation of [^3H] metabolite incorporation.
# [^3H]Uridine, [^3H] thymidine or [^3H]leucine incorporation were measured in the following manner. […] Incorporation was then determined on a Wallac Microbeta counter following lysis of the cells with H2O and capture on glass fiber filters using a Skatron harvester.
# At assay termination the assay plates were stained with the soluble tetrazolium-based dye MTS (CellTiter® Reagent, Promega) to determined cell viability and quantify compound toxicity. MTS is metabolized by the mitochondria enzymes of metabolically active cells to a soluble formazan product, allowing the rapid quantitative analysis cell viability and compound cytotoxicity. […]
# [1] = test system: CEM-SS cells chronically infected with SK-1; assay: Chronically infected CEM/SK-1 cell assay, cell viability by MTS; assay type: cell-based
# Experimental: At assay termination the assay plates were stained with the soluble tetrazolium-based dye MTS (CellTiter® Reagent, Promega) to determined cell viability and quantify compound toxicity. […] At termination of the assay 20 μL of MTS reagent was added per well. The wells were incubated for 4 h at 37° C., 5% CO2. Adhesive plate scalers were used in place of the lids, the sealed plate was inverted several times to mix the soluble formazan product and the plate was read spectrophotometrically at 490 nm with a 650 nm reference wavelength on a Molecular Devices Vmax plate reader.
# The chronically infected CEM cells were cultured and the assay performed in RPMI 1640 supplemental with 10% Fetal Bovine Serum (heat inactivated), 2 mM L-glutamine, 100 U/mL penicillin, […] and 10 ug/mL gentamycin. On day 3 cell-free supernatants were collected and cell viability measured by MTS dye reduction.
# HIV = assay: PBMC time of addition assay; assay type: cell-based
# From the text: FIGS. 18 and 19 show the results of the time of addition assay with the K and Z compound. In time of addition assays the timed addition of compounds after initial infection allows the identification of specific stages of virus replication. This is seen with the positive control compound AZT. AZT is a reverse transcriptase inhibitor. […] Thus it has an antiviral target that is occurring after completion of reverse transcription. […] In general since this time of addition uses multiple rounds of infection in the PBMCs versus a single round in cell lines systems, lower concentrations of compound will often shift the curve to the left. This is seen in FIG. 18.
Substance,non-toxic to PBMCs at concentrations (PBMCs),TOXICITY VALUES (MTS) MEAN ([1]; 0.625 μG/Ml),TOXICITY VALUES (MTS) MEAN ([1]; 2 μG/Ml),% CC ([1]; 6.25 μG/Ml),TOXICITY VALUES (MTS) MEAN ([1]; 6.25 μG/Ml),% CC ([1]; 20 μG/Ml),TOXICITY VALUES (MTS) MEAN ([1]; 20 μG/Ml),% CC ([1]; 62.5 μG/Ml),TOXICITY VALUES (MTS) MEAN ([1]; 62.5 μG/Ml),% CC ([1]; 200 μG/Ml),TOXICITY VALUES (MTS) MEAN ([1]; 200 μG/Ml),TC50 ([1]; CEMSK1 chronic infection),"suppression of virus replication (HIV; 6.4 μg/ml, added at 4 h)","suppression of virus replication (HIV; 6.4 μg/ml, added at 9 h)","suppression of virus replication (HIV; 64 μg/ml, added 49 h post infection)","suppression of virus replication (HIV; 64 μg/ml, added at 4 h)","suppression of virus replication (HIV; 64 μg/ml, added at 9 h)",TC50 in PBMCs by MTS (PBMCs),protein (leucine incorporation) and RNA (uridine incorporation) production start to drop (PBMCs)
Zinc Iodiscorbate [Compound Z],above 400 μg/ml,1.757 O. D.,1.655 O. D.,35.8%,0.631 O. D.,31.4%,0.553 O. D.,17.1%,0.301 O. D.,0.6%,0.011 O. D.,ITC50 (ug/ml) = 5.22,,,,,,,
Potassium Iodiscorbate [Compound K],above 400 μg/ml,,,,,,,,,,,,no inhibition,71%,75%,35%,87%,499 µg/mL,above 32 μg/ml
